This note sets out measurements from EPA's ToxValDB 9.5 (doi:10.2903/j.efsa.2010.1631).

The subject of one series is Aphidius rhopalosiphi. The experiment in a line: LR50; higher = less toxic. Particulars: not reported; mortality.
The subject of another series is Bibionidae. Conditions: chronic/long-term; duration: 28 days.
The conditions of series [1]: chronic/long-term; development.
Another series concerns Coturnix coturnix. Particulars: acute; oral; mortality.
A further series relates to Pimephales promelas. Particulars: chronic/long-term; duration: 30 days; growth.
The next series has as its system Cyprinus carpio. Particulars: acute; duration: 96 hours; mortality.
A further series concerns Apis mellifera. Conditions: acute; duration: 48 hours; dermal; mortality.
A further series relates to Daphnia magna. Particulars: chronic/long-term; duration: 21 days; reproduction.
Another series deals with Mus musculus. Conditions: acute; oral; mortality.
For a further series, the system named is Canidae. Particulars: oral, Dog Other, body weight.
The next series concerns Anas platyrhynchos. Conditions: acute; oral; unspecified; mortality.
In the next series the test system is Tagia sp. Particulars: acute; duration: 14 days; mortality.

For `CC(=O)O.CCCCCCCCCCCCN=C(N)N` [Dodecylguanidine acetate], the LR50 in the series on Aphidius rhopalosiphi was over 1800 g/ha. The NOEC with Bibionidae was 3.2 mg/L; in the series with Pimephales promelas, 0.099 mg/L; in the series on Daphnia magna, 0.0044 mg/L; in the series with Tagia sp. it was 171 mg/kg. The NOEL stood at 45 mg/kg-day in series [1] and 18.6 mg/kg-day in the series with Rattus norvegicus (chronic, body weight). The LD50 in the series on Coturnix coturnix is 981 mg/kg-day; in the series on Rattus norvegicus (acute, oral, mortality) it was 851 mg/kg-day; in the series on Apis mellifera it was over 100 µg/piece; in the series with Mus musculus, 1350 mg/kg-day; with Anas platyrhynchos it was 857 mg/kg-day. The figures for the LC50 in the series on Cyprinus carpio and in the series with Tagia sp. were 0.6 µg/mL and 547 mg/kg, respectively. Further, the NOAEL (commonly the highest tested level that showed no adverse finding) with Rattus norvegicus (reproduction developmental, body weight) is 10 mg/kg-day; in the series on Canidae (chronic, duration: 1 years), 10 mg/kg-day; in the series with Canidae (subchronic, duration: 90 days), 10 mg/kg-day.
